Key:
[1] = species on record: Homo sapiens; assay: Selectivity index, ratio of IC50 for inhibition of VEGFR2 (unknown origin) to IC50 for inhibition of TNNI3K (unknown origin)
[2] = biological target: Serine/threonine-protein kinase B-raf (Homo sapiens, UniProt P15056); assay: Inhibition of B-Raf (unknown origin)
[3] = biological target: Vascular endothelial growth factor receptor 2 (Homo sapiens, UniProt P35968); assay: Inhibition of GST-6His tagged VEGFR2 (unknown origin) using biotin-aminohexyl-EEEEYFELVAKKKK-NH2 peptide substrate incubated for 90 mins by HTRF assay
[4] = species on record: Homo sapiens; assay: Selectivity index, ratio of IC50 for inhibition of p38alpha (unknown origin) to IC50 for inhibition of TNNI3K (unknown origin)
[5] = biological target: T1, Serine/threonine-protein kinase TNNI3K (Homo sapiens, UniProt Q59H18); assay: Inhibition of TNNI3K (unknown origin)
T1 sequence (Q59H18 whole entry): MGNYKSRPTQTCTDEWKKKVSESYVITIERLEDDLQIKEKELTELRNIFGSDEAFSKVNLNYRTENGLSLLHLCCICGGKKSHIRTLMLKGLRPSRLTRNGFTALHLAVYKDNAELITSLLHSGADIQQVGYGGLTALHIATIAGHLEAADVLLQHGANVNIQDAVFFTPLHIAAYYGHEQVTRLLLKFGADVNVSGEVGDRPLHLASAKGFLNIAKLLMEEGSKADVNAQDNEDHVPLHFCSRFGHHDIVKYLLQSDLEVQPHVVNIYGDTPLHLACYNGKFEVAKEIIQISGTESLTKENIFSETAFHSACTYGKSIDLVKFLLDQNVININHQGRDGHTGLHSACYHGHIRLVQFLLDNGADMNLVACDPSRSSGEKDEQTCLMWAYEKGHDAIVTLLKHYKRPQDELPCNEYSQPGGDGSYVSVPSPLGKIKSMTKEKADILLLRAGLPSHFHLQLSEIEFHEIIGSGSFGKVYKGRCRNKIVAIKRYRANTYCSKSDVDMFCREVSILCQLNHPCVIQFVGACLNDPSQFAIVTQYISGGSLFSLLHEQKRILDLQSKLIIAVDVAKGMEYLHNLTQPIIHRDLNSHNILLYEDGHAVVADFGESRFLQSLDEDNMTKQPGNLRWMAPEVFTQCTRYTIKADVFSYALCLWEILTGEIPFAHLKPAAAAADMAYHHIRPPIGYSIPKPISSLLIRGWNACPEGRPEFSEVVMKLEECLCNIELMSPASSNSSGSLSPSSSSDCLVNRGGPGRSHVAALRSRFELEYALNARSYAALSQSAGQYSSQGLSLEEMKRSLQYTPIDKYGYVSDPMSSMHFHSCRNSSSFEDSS

[6] = biological target: Mitogen-activated protein kinase 14 (Homo sapiens, UniProt Q16539); assay: Inhibition of p38alpha (unknown origin)
Mitogen-activated protein kinase 14, sequence (Q16539 whole entry): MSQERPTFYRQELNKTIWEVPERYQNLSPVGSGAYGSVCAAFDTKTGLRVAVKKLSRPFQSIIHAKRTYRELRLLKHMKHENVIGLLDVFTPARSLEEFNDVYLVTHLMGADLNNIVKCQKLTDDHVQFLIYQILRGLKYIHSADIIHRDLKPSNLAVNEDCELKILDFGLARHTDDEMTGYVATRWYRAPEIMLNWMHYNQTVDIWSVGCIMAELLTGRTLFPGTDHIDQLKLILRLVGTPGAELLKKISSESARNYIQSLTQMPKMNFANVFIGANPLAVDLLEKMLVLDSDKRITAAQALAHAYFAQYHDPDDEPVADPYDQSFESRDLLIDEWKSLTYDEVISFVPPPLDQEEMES

Serine/threonine-protein kinase B-raf, sequence (P15056 whole entry): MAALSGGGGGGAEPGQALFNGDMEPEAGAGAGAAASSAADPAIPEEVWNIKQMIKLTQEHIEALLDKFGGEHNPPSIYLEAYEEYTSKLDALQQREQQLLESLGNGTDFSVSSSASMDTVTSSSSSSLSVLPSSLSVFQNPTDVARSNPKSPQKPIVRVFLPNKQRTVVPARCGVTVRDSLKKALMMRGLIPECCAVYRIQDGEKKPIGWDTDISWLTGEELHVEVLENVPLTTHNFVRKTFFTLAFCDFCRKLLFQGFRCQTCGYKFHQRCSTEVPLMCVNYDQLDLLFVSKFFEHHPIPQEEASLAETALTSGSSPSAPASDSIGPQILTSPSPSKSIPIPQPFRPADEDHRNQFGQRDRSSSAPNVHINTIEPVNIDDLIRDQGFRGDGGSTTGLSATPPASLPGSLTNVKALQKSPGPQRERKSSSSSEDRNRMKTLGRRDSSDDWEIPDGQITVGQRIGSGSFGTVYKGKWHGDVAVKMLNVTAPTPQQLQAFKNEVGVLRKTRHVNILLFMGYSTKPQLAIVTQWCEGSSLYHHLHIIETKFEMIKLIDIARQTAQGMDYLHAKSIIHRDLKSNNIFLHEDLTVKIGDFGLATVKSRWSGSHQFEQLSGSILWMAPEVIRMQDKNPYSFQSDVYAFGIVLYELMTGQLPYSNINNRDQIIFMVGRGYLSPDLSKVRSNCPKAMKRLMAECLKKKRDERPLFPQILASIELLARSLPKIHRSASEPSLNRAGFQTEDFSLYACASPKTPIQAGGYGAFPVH
Vascular endothelial growth factor receptor 2, sequence (P35968 whole entry): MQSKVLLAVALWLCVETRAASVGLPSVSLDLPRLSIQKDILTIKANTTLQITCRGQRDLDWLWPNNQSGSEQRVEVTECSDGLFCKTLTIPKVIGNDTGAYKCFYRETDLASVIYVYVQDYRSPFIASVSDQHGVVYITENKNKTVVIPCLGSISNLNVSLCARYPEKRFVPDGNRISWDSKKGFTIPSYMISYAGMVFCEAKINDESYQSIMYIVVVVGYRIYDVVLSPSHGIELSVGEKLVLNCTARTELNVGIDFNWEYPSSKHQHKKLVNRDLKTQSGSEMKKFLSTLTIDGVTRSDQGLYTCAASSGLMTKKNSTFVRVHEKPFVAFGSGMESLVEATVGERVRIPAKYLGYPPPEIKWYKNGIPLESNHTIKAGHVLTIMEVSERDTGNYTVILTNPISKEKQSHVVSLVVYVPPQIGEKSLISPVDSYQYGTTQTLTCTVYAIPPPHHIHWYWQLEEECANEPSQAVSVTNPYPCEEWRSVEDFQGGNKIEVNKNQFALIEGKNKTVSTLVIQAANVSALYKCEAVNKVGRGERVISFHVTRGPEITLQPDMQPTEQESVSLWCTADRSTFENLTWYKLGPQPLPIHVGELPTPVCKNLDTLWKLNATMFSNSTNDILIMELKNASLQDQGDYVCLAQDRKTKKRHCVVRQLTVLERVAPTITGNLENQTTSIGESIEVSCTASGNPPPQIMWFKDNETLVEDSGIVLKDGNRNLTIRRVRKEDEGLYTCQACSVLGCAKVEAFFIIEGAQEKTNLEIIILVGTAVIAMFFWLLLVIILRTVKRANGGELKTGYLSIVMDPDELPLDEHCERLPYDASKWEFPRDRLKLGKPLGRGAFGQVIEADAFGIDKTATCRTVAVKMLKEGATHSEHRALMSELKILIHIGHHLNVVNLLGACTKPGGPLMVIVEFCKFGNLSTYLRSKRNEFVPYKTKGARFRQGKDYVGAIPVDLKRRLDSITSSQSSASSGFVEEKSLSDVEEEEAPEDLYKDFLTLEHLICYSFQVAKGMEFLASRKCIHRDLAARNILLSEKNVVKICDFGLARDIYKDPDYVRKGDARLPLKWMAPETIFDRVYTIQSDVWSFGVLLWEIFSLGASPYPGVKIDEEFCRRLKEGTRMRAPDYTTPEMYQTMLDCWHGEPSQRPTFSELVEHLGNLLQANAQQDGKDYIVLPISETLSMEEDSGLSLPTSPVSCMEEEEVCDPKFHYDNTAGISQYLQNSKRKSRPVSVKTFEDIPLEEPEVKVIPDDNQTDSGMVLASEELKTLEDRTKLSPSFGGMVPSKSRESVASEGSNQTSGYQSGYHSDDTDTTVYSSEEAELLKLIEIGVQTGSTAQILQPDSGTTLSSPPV

Ratio IC50 [1]	IC50 [2] [nM]	IC50 [3] [nM]	Ratio IC50 [4]	IC50 [5] [nM]	IC50 [6] [nM]	Compound
1	> 2000	3200	0.5	3200	1600	O=C(Nc1ccc(Oc2cc(O)ncn2)cc1)Nc1cccc(C(F)(F)F)c1
0.16	400	2.5	31	16	500	O=C(Nc1ccc(Oc2ncnc3[nH]ccc23)cc1)Nc1cccc(C(F)(F)F)c1
10	800	320	10	32	320	C[C@H](O)CNc1cc(Oc2ccc(NC(=O)Nc3cccc(C(F)(F)F)c3)cc2)ncn1
1	500	40	25	40	1000	CNc1cc(Oc2ccc(NC(=O)Nc3cccc(C(C)(F)F)c3)cc2)ncn1
–	1260	> 10000	< 0.02	> 50000	1000	Cc1cc(Oc2ccc(NC(=O)Nc3cccc(C(F)(F)F)c3)cc2)c2ccccc2n1
0.32	200	3.2	5	10	50	O=C(Nc1ccc(Oc2cc(Nc3cccc(CN4CCCC4)c3)ncn2)cc1)Nc1cccc(C(F)(F)F)c1
0.63	> 2000	800	> 20	1260	> 25000	CNc1cc(Oc2ccc(NC(=O)Nc3cccc(C)c3)cc2)ncn1
1	> 2000	6300	> 4	6300	> 25000	CNc1cc(Oc2ccc(NC(=O)Nc3ccccc3)cc2)ncn1
1	500	50	16	50	800	CNc1cc(Oc2ccc(NC(=O)Nc3cccc(C(F)(F)F)c3)cc2Cl)ncn1
0.3	1000	50	3.9	160	630	O=C(Nc1ccc(Oc2ccncn2)cc1)Nc1cccc(C(F)(F)F)c1
1.3	> 2000	130	62	100	6300	CNc1cc(Oc2ccc(NC(=O)Nc3cccc(C(F)F)c3)cc2)ncn1
0.65	> 2000	130	80	200	16000	CCc1cccc(NC(=O)Nc2ccc(Oc3cc(NC)ncn3)cc2)c1
0.1	> 2000	400	0.3	4000	1260	COc1cc(Oc2ccc(NC(=O)Nc3cccc(C(F)(F)F)c3)cc2)ncn1
5.1	> 2000	400	25	79	2000	CNc1cc(Oc2c(C)cc(NC(=O)Nc3cccc(C(F)(F)F)c3)cc2Cl)ncn1
6.4	1260	320	5	50	250	CC(C)CNc1cc(Oc2ccc(NC(=O)Nc3cccc(C(F)(F)F)c3)cc2)ncn1
0.5	100	13	0.2	25	5	CNc1cc(Oc2ccc(NC(=O)Nc3cccc(C(F)(F)F)c3)c3ccccc23)ncn1

Ratio IC50 [1]	IC50 [2] [nM]	IC50 [3] [nM]	Ratio IC50 [4]	IC50 [5] [nM]	IC50 [6] [nM]	Compound
0.05	–	4	4	79	320	CNC(=O)c1cc(Oc2ccc(NC(=O)Nc3cccc(C(F)(F)F)c3)cc2)ccn1
5	> 2000	160	4	32	130	CNc1cc(Oc2c(C)cc(NC(=O)Nc3cccc(C(F)(F)F)c3)c3ccccc23)ncn1
0.13	16	2.5	8	20	160	CNc1cc(Oc2ccc(NC(=O)Nc3cccc(C(F)(F)F)c3)c(F)c2F)ncn1
1	> 2000	400	63	400	25000	CNc1cc(Oc2ccc(NC(=O)Nc3cccc(CF)c3)cc2)ncn1
0.08	63	2	32	23	800	COc1cc2ncnc(Oc3ccc(NC(=O)Nc4cccc(C(F)(F)F)c4)cc3)c2cc1OC
0.4	1260	320	1.6	800	1260	O=C(Nc1ccc(Oc2ncnc3ccccc23)cc1)Nc1cccc(C(F)(F)F)c1
3.2	1000	200	8	63	500	C[C@@H](O)CNc1cc(Oc2ccc(NC(=O)Nc3cccc(C(F)(F)F)c3)cc2)ncn1
0.4	1260	63	6.3	160	1000	Cc1cc(Oc2ccc(NC(=O)Nc3cccc(C(F)(F)F)c3)cc2)ncn1
0.08	200	5	1.6	63	100	O=C(Nc1ccc(Oc2ccnc3ccccc23)cc1)Nc1cccc(C(F)(F)F)c1
0.04	630	0.4	40	10	400	O=C(O)Cc1cccc(Nc2cc(Oc3ccc(NC(=O)Nc4cccc(C(F)(F)F)c4)cc3)ncn2)c1
0.1	400	10	16	100	1600	COc1ccc2ncnc(Oc3ccc(NC(=O)Nc4cccc(C(F)(F)F)c4)cc3)c2c1
2.5	> 2000	50	25	20	500	CNc1cc(Oc2c(F)cc(NC(=O)Nc3cccc(C(F)(F)F)c3)cc2F)ncn1
0.1	320	3.2	1	32	32	O=C(Nc1ccc(Oc2ccnc3[nH]ccc23)cc1)Nc1cccc(C(F)(F)F)c1
0.4	630	20	4	50	200	O=C(Nc1ccc(Oc2ccncc2)cc1)Nc1cccc(C(F)(F)F)c1
–	630	19	13	32	400	CCCNc1cc(Oc2ccc(NC(=O)Nc3cccc(C(F)(F)F)c3)cc2)ncn1
0.64	1600	16	40	–	1000	CNc1cc(Oc2ccc(NC(=O)Nc3cccc(C(F)(F)F)c3)cc2F)ncn1

Reference: ChEMBL document CHEMBL4840354, “Identification of Diarylurea Inhibitors of the Cardiac-Specific Kinase TNNI3K by Designing Selectivity Against VEGFR2, p38α, and B-Raf” (J Med Chem, 2021)
